For experiment [1], the target named is T1, 5HT7 receptors (Homo sapiens, UniProt P34969). Briefly: Functional data (Kb), HitHunter cAMP enzyme fragment complementation assay with 5-HT as agonist. Type of experiment: cell-based. The arrangement: expressed in transfected cells; G418 selection). On the procedure: Functional efficacy of the compounds of the disclosure on 5-HT7 serotonin receptors were measured in a cell based cAMP enzyme fragment complementation assay using the HitHunter cAMP assay (DiscoveRx). Cells stably expressing human 5HT7 receptors were plated in 96-well plates at 4000 cells/well, 16-20 hours prior to assay in growth media (Ultraculture medium, 2 mM GlutaMax and G418 1 mg/mL. Serial dilutions of the agonist, 5-hydroxytryptamine (5-HT), were prepared in a final concentration range of 10 μM to 10 nM. Compounds of the disclosure were prepared in 3-fold serial dilutions to obtain a final concentration range of 10 μM to 0.1 nM. Compounds of the disclosure are tested for agonist activity in the absence of 5-HT and antagonist activity in the presence of 5-HT. For the cAMP assay, the protocol was followed according to the instructions provided by the supplier. Briefly, cells were incubated with a compound of the disclosure for 30 minutes at 37° C. prior to addition of EC70 concentration of 5-HT. After an additional 30 minutes, cAMP antibody/cell lysis solution was added (20 μL/well) and incubated for 60 minutes at room temperature. cAMP XS+EA reagent is added (20 μL/well) and incubated for 2 hours at room temperature. Luminescence was read on the Envision Multilabel plate reader.
T1 sequence (P34969 whole entry, the tested form may be a part): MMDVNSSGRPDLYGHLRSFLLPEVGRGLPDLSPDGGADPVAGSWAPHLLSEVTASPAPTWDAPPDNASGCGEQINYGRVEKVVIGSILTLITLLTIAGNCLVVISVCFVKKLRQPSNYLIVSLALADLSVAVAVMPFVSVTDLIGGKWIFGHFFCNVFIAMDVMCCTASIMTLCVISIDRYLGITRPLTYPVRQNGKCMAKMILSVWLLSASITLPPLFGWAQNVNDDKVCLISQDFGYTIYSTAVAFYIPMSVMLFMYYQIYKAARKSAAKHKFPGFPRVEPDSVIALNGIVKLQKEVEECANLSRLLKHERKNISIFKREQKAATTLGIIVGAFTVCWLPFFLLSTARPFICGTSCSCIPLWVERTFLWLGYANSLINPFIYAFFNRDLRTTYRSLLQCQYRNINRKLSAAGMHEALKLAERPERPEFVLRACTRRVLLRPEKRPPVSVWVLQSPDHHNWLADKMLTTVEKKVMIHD

The target in experiment [2] is T1, 5HT7 receptors. As to the kind of experiment: Radiolabeled binding (IC50 and Ki), [3H]LSD competition on membranes of cells expressing recombinant 5HT7 receptors. The note with it: for pIC50: Table 35, scaffold drawing 615, read-out: IC50; for IC50: [3H]LSD radioligand, membranes of cells expressing recombinant 5HT7 receptors, read-out: IC50 (nM)^1. Set-up: expressed in transfected cells. On the procedure: Radiolabel Binding Studies for Serotonin 5HT7 Receptors, Method 1:
A solution of the compound of the disclosure to be tested is prepared as a 1-mg/ml stock in Assay Buffer or DMSO according to its solubility. A similar stock of the reference compound chlorpromazine is also prepared as a positive control. Eleven dilutions (5×assay concentration) of the compound of the disclosure and chlorpromazine are prepared in the Assay Buffer by serial dilution to yield final corresponding assay concentrations ranging from 10 pM to 10 μM.
A stock concentration of 5 nM [^3H]LSD (lysergic acid diethyl amide) is prepared in 50 mM Tris-HCl, 10 mM MgCl2, 1 mM EDTA, pH 7.4 (Assay Buffer). Aliquots (50 μl) of radioligand are dispensed into the wells of a 96-well plate containing 100 μl of Assay Buffer. Duplicate 50-μl aliquots of the compound of the disclosure test and chlorpromazine positive control reference compound serial dilutions are added.
Membrane fractions of cells expressing recombinant 5HT7 receptors (50 μL) are dispensed into each well. The membranes are prepared from stably transfected cell lines expressing 5HT7 receptors cultured on 10-cm plates by harvesting PBS-rinsed monolayers, resuspending and lysing in chilled, hypotonic 50 mM Tris-HCl, pH 7.4, centrifuging at 20,000×g, decanting the supernatant and storing at −80° C.; the membrane preparations are resuspended in 3 ml of chilled Assay Buffer and homogenized by several passages through a 26 gauge needle before using in the assay.
The 250-μl reactions are incubated at room temperature for 1.5 hours, then harvested by rapid filtration onto 0.3% polyethyleneimine-treated, 96-well filter mats using a 96-well Filtermate harvester. Four rapid 500-μl washes are performed with chilled Assay Buffer to reduce non-specific binding. The filter mats are dried, then scintillant is added to the filters and the radioactivity retained on the filters is counted in a Microbeta scintillation counter.
Raw data (dpm) representing total radioligand binding (i.e., specific+non-specific binding) are plotted as a function of the logarithm of the molar concentration of the competitor (i.e., test or reference compound). Non-linear regression of the normalized (i.e., percent radioligand binding compared to that observed in the absence of test or reference compound) raw data is performed in Prism 4.0 (GraphPad Software) using the built-in three parameter logistic model describing ligand competition binding to radioligand-labeled sites: y=bottom+[(top-bottom)/(1+10×−logIC50)] where bottom equals the residual radioligand binding measured in the presence of 10 μM reference compound (i.e., non-specific binding) and top equals the total radioligand binding observed in the absence of competitor. The log IC50 (i.e., the log of the ligand concentration that reduces radioligand binding by 50%) is thus estimated from the data and used to obtain the Ki by applying the Cheng-Prusoff approximation: Ki=IC50/(1+[ligand]/KD) • where [ligand] equals the assay radioligand concentration and KD equals the affinity constant of the radioligand for the target receptor.
^1Radiolabeled Binding (IC50 and K1)
A solution of the compound of the disclosure to be tested was prepared as a 1-mg/ml stock in Assay Buffer or DMSO according to its solubility. A similar stock of the reference compound chlorpromazine was also prepared as a positive control. Eleven dilutions (5× assay concentration) of the compound of the disclosure and chlorpromazine were prepared in the Assay Buffer by serial dilution to yield final corresponding assay concentrations ranging from […].
A stock concentration of 5 nM [^3H]LSD (lysergic acid diethyl amide) was prepared in 50 mM Tris-HCl, 10 mM MgCl2, 1 mM EDTA, pH 7.4 (Assay Buffer). Aliquots (50 μl) of radioligand were dispensed into the wells of a 96-well plate containing 100 μl of Assay Buffer. […]

Where [3] appears, read: Table 37, scaffold drawing 617, antagonist mode vs 5-HT, read-out: Kb.
Where [4] appears, read: Table 35, scaffold drawing 615, antagonist mode vs 5-HT, read-out: Kb.
Where [5] appears, read: cAMP assay, cells stably expressing human 5HT7 receptors, antagonist activity in the presence of EC70 5-HT, read-out: Kb (nM)^2.

pIC50, pKi: −log10 of the molar value. Where two headings read alike, the source gives them in different places.

For the compound `CCC1(CC)C[C@@H](CCN2CCN(c3ccc(C)cc3)CC2)NC1=O` [(S)-3,3-diethyl-5-(2-(4-(p-tolyl)piperazin-1-yl)ethyl)pyrrolidin-2-one], at 5HT7 receptors [1] (Table 36, scaffold drawing 616, antagonist mode vs 5-HT, read-out: Kb), the Kb (commonly the equilibrium dissociation constant of an antagonist, usually derived from a functional assay) was found to be 58.1 nM. Besides, on 5HT7 receptors [2] (Table 36, scaffold drawing 616), the pKi – broadly, the negative decadic logarithm of the Ki, by convention in mol/L – is 7.10.
For the compound `CS(=O)(=O)N1CCC2(CC1)C[C@H](CCN1CCN(c3cccc(Cl)c3)CC1)NC2=O` [drawing 617 n=2 R3=3-Cl-Phenyl R7=MeSO2, (R)-3-(2-(4-(3-chlorophenyl)piperazin-1-yl)ethyl)-8-(methylsulfonyl)-2,8-diazaspiro[4.5]decan-1-one], the Kb at 5HT7 receptors [1] (setting [3]) stood at 13.5 nM. The pKi on 5HT7 receptors [2] (Table 37, scaffold drawing 617) was 6.97.
For `CCC1(CC)C[C@H](CCN2CCN(c3ccc(F)cc3)CC2)NC1=O` [(R)-3,3-diethyl-5-(2-(4-(4-fluorophenyl)piperazin-1-yl)ethyl)pyrrolidin-2-one], the Kb on 5HT7 receptors [1] (setting [4]) worked out at 0.81 nM. In addition, at 5HT7 receptors [2], the pIC50 (as a rule, the IC50 on a negative log10 scale, so that one unit is a factor of ten) was 7.91.
Take `CC(=O)N1CCC2(CC1)C[C@H](CCN1CCN(c3cccc(Cl)c3)CC1)NC2=O` [drawing 617 n=2 R3=3-Cl-Phenyl R7=Acetyl, (R)-8-acetyl-3-(2-(4-(3-chlorophenyl)piperazin-1-yl)ethyl)-2,8-diazaspiro[4.5]decan-1-one]: the Kb at 5HT7 receptors [1] (setting [3]) stood at 5.04 nM. In addition, on 5HT7 receptors [2] (Table 37, scaffold drawing 617), the pKi was 7.20.
Take `CCC1(CC)CC(CCN2CCN(c3ccc(O)cc3)CC2)NC1=O` (stereo not shown) [3,3-diethyl-5-(2-(4-(4-hydroxyphenyl)piperazin-1-yl)ethyl)pyrrolidin-2-one]: the Kb on 5HT7 receptors [1] (setting [5]) is 50 nM. Besides, the IC50 (in general, the midpoint of a concentration-inhibition curve) on 5HT7 receptors [2] came out at 34 nM.
As for `CCC1(CC)C[C@H](CCN2CCN(c3cccc(Cl)c3)CC2)NC1=O` [(R)-5-(2-(4-(3-chlorophenyl)piperazin-1-yl)ethyl)-3,3-diethylpyrrolidin-2-one], the Kb on 5HT7 receptors [1] (setting [4]) stood at 1.38 nM. The pIC50 at 5HT7 receptors [2] was 8.00.
Turning to `CC(=O)N1CCC2(CC1)C[C@H](CCN1CCN(c3ccc(F)cc3)CC1)NC2=O` [drawing 617 n=2 R3=4-F-Phenyl R7=Acetyl, (R)-8-acetyl-3-(2-(4-(4-fluorophenyl)piperazin-1-yl)ethyl)-2,8-diazaspiro[4.5]decan-1-one], the antagonist dissociation constant (Kb) at 5HT7 receptors [1] (setting [3]) amounted to 14.4 nM. Further, the pKi on 5HT7 receptors [2] (Table 37, scaffold drawing 617) is 7.12.
As to `CCC1(CC)CC(CCN2CCN(c3ccccc3C(C)C)CC2)NC1=O` (stereo not shown) [3,3-diethyl-5-(2-(4-(2-isopropylphenyl)piperazin-1-yl)ethyl)pyrrolidin-2-one], the Kb at 5HT7 receptors [1] (setting [5]) turned out to be 163 nM. The IC50 on 5HT7 receptors [2] was determined as 23 nM.
Consider `CCC1(CC)CC(CCN2CCN(c3ccccc3N3CCOCC3)CC2)NC1=O` (stereo not shown) [3,3-diethyl-5-(2-(4-(2-morpholinophenyl)piperazin-1-yl)ethyl)pyrrolidin-2-one], for which, at 5HT7 receptors [1] (setting [5]), the Kb amounted to 32.3 nM. Also, the IC50 at 5HT7 receptors [2] amounted to 24 nM.
In the same order, the values of `CCC1(CC)CC(CCN2CCN(c3ccc(C)cc3N3CCOCC3)CC2)NC1=O` (stereo not shown) [3,3-diethyl-5-(2-(4-(4-methyl-2-morpholinophenyl)piperazin-1-yl)ethyl)pyrrolidin-2-one] are 59.3 nM and 74 nM.
`CCC1(CC)CC(CCN2CCN(c3ccc(F)cc3)CC2)NC1=O` (stereo not shown) [3,3-diethyl-5-(2-(4-(4-fluorophenyl)piperazin-1-yl)ethyl)pyrrolidin-2-one]: the Kb at 5HT7 receptors [1] (setting [5]) amounted to 8.98 nM. Further, on 5HT7 receptors [2], the IC50 was found to be 8.5 nM.
